From patent publication US6455303B1, “Detection of biologically active molecules by use of pre-activated cell-based biosensors in liquid-based separation systems” (Cellectricon AB, priority 1997, dated 2002)

What was measured:
[1] = system: AMPA receptors; assay: Capillary electrophoresis-patch clamp detection, kainate pre-activated whole-cell biosensor; format: cell-based; details: 100 μM KA in capillary; holding potential −70 mV; interneurons from rat olfactory bulb
Procedure: Separation of mixtures of glutamate receptor antagonists were performed using cell-based biosensor-compatible buffers. A cell-based biosensor-compatible buffer is a buffer which effectively keeps the cell-based biosensor in a functional and viable condition during the course of the experiment or the analysis procedure. slightly modified standard HEPES-saline buffer containing 140 mM NaCl, 5 mM KCl, 1 mM MgCl2, 1 mM CaCl2, 10 mM glucose and 10 mM HEPES (pH 7.4, NaOH) was used as extracellular and capillary buffer in examples 1 and 2 except in the separation of Mg^2+ where MgCl2 were omitted. As described in the examples, the preferred agonist were only—included in the capillary solution. […]
(§1) The patch clamp detection was performed in the whole-cell configuration as described by Hamill, et al. (see Hamill, O. P., et al, Pflug. Arch. 391:85, 1981). […] Patch pipettes were fabricated from thick-walled borosilicate glass (code no GC150-10, Clark Electromedical Instruments, Pangboume, Reading, UK). […]
(§2) The signals were recorded with a patch clamp amplifier (Model List L/M EPC-7, List-Electronic, Darmstadt, Germany), digitized (20 kHz, PCM 2 A/D VCR adapter, Medical Systems Corp., NY, USA), and stored on videotape. […]

[2] = system: N-methyl-D-aspartate receptor; assay: Capillary electrophoresis-patch clamp detection, NMDA/glycine pre-activated whole-cell biosensor; format: cell-based, rat
Procedure: Separation of mixtures of glutamate receptor antagonists were performed using cell-based biosensor-compatible buffers. A cell-based biosensor-compatible buffer is a buffer which effectively keeps the cell-based biosensor in a functional and viable condition during the course of the experiment or the analysis procedure. slightly modified standard HEPES-saline buffer containing 140 mM NaCl, 5 mM KCl, 1 mM MgCl2, 1 mM CaCl2, 10 mM glucose and 10 mM HEPES (pH 7.4, NaOH) was used as extracellular and capillary buffer in examples 1 and 2 except in the separation of Mg^2+ where MgCl2 were omitted. As described in the examples, the preferred agonist were only—included in the capillary solution.
The cells used were interneurons from rat olfactory bulb acutely isolated according to the procedures described by Jacobson et al. (see Jacobson, I., Neurosci. Res. Comm. 8:11, 1991, and Jacobson, I., et al., Neurosci. Res. Comm. 10:177, 1992).
Newborn or adult rats (10-200 g) were anaesthetized with halothane (ISC Chemicals Ltd., Avonmouth, England) and decapitated. The olfactory bulbs were dissected and sliced into four pieces and placed in an incubation chamber. The chamber contained proteases from Aspergillus oryzae (2.5 mg/ml) which were dissolved in pre-warmed (32° C.) HEPES-saline buffer (see above). After 25-30 min., the slices were washed with the same buffer solution for 20 min. The solutions were constantly perfused with 95% O2 and 5% CO2 during both the enzymatic treatment arid the washing. […]
as §1, §2

[3] = voltage ramp −80 to +40 mV, NMDA receptor response attenuated by separated Mg^2+

## N#Cc1cc2c(cc1[N+](=O)[O-])=NC(=O)C(=O)N=2 [CNQX, 6-cyano-7-nitroquinoxaline-2,3-dione]
[1]
  effect on KA-activated current responses: transient attenuations of KA-activated current responses

## O=C(O)c1nc2cc(Cl)c(Cl)cc2nc1O [DCQXC, 6,7-dichloro-3-hydroxy-2-quinoxaline-carboxylic acid]
[1]
  effect on KA-activated current responses: transient attenuations of KA-activated current responses

## [Mg+2] [Mg^2+]
[2]; Mg^2+ 2 mM injected, 200 μM NMDA and 20 μM glycine in capillary, holding potential −70 mV, interneurons from rat olfactory bulb
  effect on N-methyl-D-aspartate-activated current responses: transient Gaussian-distributed attenuation of N-methyl-D-aspartate-activated current responses
[2]; [3]
  current-to-voltage relationship: inward currents at membrane resting potentials: blockade of inward currents at membrane resting potentials
  current-to-voltage relationship: outward currents at positive potentials: unaltered outward currents at positive potentials
